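How tested: cells in 96-well plates exposed to compound for 48 hours at five concentrations. The concentration for 50% growth inhibition is given as GI50. TGI: total growth inhibition.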
How the values were obtained:
Assay in all cases: NCI-60 cell line screen, 48 h
786-0 renal = system: 786-0 renal
A549 NSCLC = system: A549 NSCLC
COLO 205 colon = system: COLO 205 colon
KM12 colon = system: KM12 colon
OVCAR-4 ovarian = system: OVCAR-4 ovarian
OVCAR-5 ovarian = system: OVCAR-5 ovarian
RXF 393 renal = system: RXF 393 renal
SF-295 CNS = system: SF-295 CNS
SK-MEL-2 melanoma = system: SK-MEL-2 melanoma
SNB-75 CNS = system: SNB-75 CNS

O=C1c2cccc3cc([N+](=O)[O-])cc(c23)C(=O)N1NC1=NCCN1
TGI (786-0 renal): > 100 µM | TGI (A549 NSCLC): > 100 µM | TGI (COLO 205 colon): > 100 µM | TGI (KM12 colon): > 100 µM | TGI (OVCAR-4 ovarian): > 100 µM | TGI (OVCAR-5 ovarian): > 100 µM | TGI (RXF 393 renal): > 100 µM | TGI (SF-295 CNS): > 100 µM | TGI (SK-MEL-2 melanoma): > 100 µM | TGI (SNB-75 CNS): > 100 µM

O=C(/C=C/c1ccccc1)c1c[nH]c2ccccc2c1=O
GI50 (786-0 renal): 4.01 µM | TGI (786-0 renal): 17.2 µM | GI50 (A549 NSCLC): 2.35 µM | TGI (A549 NSCLC): 10.3 µM | GI50 (COLO 205 colon): 2.39 µM | TGI (COLO 205 colon): 4.68 µM | GI50 (KM12 colon): 3.37 µM | TGI (KM12 colon): 11 µM | GI50 (OVCAR-4 ovarian): 4.88 µM | TGI (OVCAR-4 ovarian): 23.5 µM | GI50 (OVCAR-5 ovarian): 3.87 µM | TGI (OVCAR-5 ovarian): 17 µM | GI50 (RXF 393 renal): 3.05 µM | TGI (RXF 393 renal): 11.5 µM | GI50 (SF-295 CNS): 2.31 µM | TGI (SF-295 CNS): 7.18 µM | GI50 (SK-MEL-2 melanoma): 2.42 µM | TGI (SK-MEL-2 melanoma): 5.72 µM | GI50 (SNB-75 CNS): 3.1 µM | TGI (SNB-75 CNS): 12 µM

Cc1csc(/C=N/NC(=O)c2nnn(-c3ccnc4c(C(F)(F)F)cccc34)c2C)c1
GI50 (786-0 renal): > 100 µM | TGI (786-0 renal): > 100 µM | GI50 (A549 NSCLC): 36.6 µM | TGI (A549 NSCLC): > 100 µM | GI50 (COLO 205 colon): 34.2 µM | TGI (COLO 205 colon): > 100 µM | GI50 (KM12 colon): > 100 µM | TGI (KM12 colon): > 100 µM | GI50 (OVCAR-4 ovarian): 5.2 µM | TGI (OVCAR-4 ovarian): 37.4 µM | GI50 (OVCAR-5 ovarian): > 100 µM | TGI (OVCAR-5 ovarian): > 100 µM | GI50 (RXF 393 renal): 1.41 µM | TGI (RXF 393 renal): 62.7 µM | GI50 (SF-295 CNS): 34.7 µM | TGI (SF-295 CNS): > 100 µM | GI50 (SK-MEL-2 melanoma): > 100 µM | TGI (SK-MEL-2 melanoma): > 100 µM | GI50 (SNB-75 CNS): 27.2 µM | TGI (SNB-75 CNS): 92.1 µM

COc1cc2ccccc2c2cc([N+](=O)[O-])oc12
TGI (786-0 renal): 7.49 µM | TGI (A549 NSCLC): 22.7 µM | TGI (COLO 205 colon): 2.36 µM | TGI (KM12 colon): 4.68 µM | TGI (OVCAR-4 ovarian): > 44 µM | TGI (OVCAR-5 ovarian): 9.93 µM | TGI (RXF 393 renal): 0.844 µM | TGI (SF-295 CNS): 15.6 µM | TGI (SK-MEL-2 melanoma): 0.452 µM | TGI (SNB-75 CNS): 6.9 µM

CC[C@@]1(OC(=O)CN)C(=O)OCc2c1cc1n(c2=O)Cc2cc3cc4c(cc3nc2-1)OCO4
GI50 (786-0 renal): < 0.01 µM | TGI (786-0 renal): 0.0367 µM | GI50 (A549 NSCLC): < 0.01 µM | TGI (A549 NSCLC): 0.309 µM | GI50 (COLO 205 colon): 0.127 µM | TGI (COLO 205 colon): 1.53 µM | GI50 (KM12 colon): 0.0346 µM | TGI (KM12 colon): 0.296 µM | GI50 (OVCAR-4 ovarian): 0.0988 µM | TGI (OVCAR-4 ovarian): 0.826 µM | GI50 (OVCAR-5 ovarian): < 0.0169 µM | TGI (OVCAR-5 ovarian): 0.232 µM | GI50 (RXF 393 renal): < 0.01 µM | TGI (RXF 393 renal): 0.192 µM | GI50 (SF-295 CNS): < 0.01 µM | TGI (SF-295 CNS): < 0.01 µM | GI50 (SK-MEL-2 melanoma): 0.105 µM | TGI (SK-MEL-2 melanoma): 0.438 µM | GI50 (SNB-75 CNS): < 0.01 µM

Cc1ccc(C2CC(c3ccc([N+](=O)[O-])cc3)=Nc3ccccc3S2)cc1 (centres undefined)
TGI (786-0 renal): 28 µM | TGI (A549 NSCLC): > 100 µM | TGI (COLO 205 colon): > 100 µM | TGI (KM12 colon): 75.2 µM | TGI (OVCAR-4 ovarian): > 100 µM | TGI (OVCAR-5 ovarian): > 100 µM | TGI (RXF 393 renal): 38.9 µM | TGI (SF-295 CNS): > 100 µM | TGI (SK-MEL-2 melanoma): 95 µM | TGI (SNB-75 CNS): 82 µM

COc1cccc(C(=O)Nc2ccc(CN3CCc4nc5cc(OC)c(OC)cc5cc43)cc2)c1
GI50 (786-0 renal): 3.02 µM | TGI (786-0 renal): 9.71 µM | GI50 (A549 NSCLC): 3.78 µM | TGI (A549 NSCLC): > 100 µM | GI50 (COLO 205 colon): 2.69 µM | TGI (COLO 205 colon): 7.03 µM | GI50 (KM12 colon): 2.09 µM | TGI (KM12 colon): 5.29 µM | GI50 (OVCAR-4 ovarian): 3.32 µM | TGI (OVCAR-4 ovarian): > 100 µM | GI50 (OVCAR-5 ovarian): 12.9 µM | TGI (OVCAR-5 ovarian): > 100 µM | GI50 (RXF 393 renal): 2.74 µM | TGI (RXF 393 renal): 15.3 µM | GI50 (SF-295 CNS): 5.72 µM | TGI (SF-295 CNS): 28.1 µM | GI50 (SK-MEL-2 melanoma): 8.8 µM | TGI (SK-MEL-2 melanoma): 22.4 µM | GI50 (SNB-75 CNS): 2.66 µM | TGI (SNB-75 CNS): > 100 µM
